This passage reports IC50, selectivity ratio and inhibition results from ChEMBL document CHEMBL5352465, “Small molecules containing chalcogen elements (S, Se, Te) as new warhead to fight neglected tropical diseases” (Eur J Med Chem, 2023).

The subject of data set [1] is Trypanosoma cruzi. Briefly: Antitrypanosomal activity against Trypanosoma cruzi Y strain epimastigotes assessed as parasite growth inhibition incubated for 48 hrs by spectrophotometric analysis. The format is functional, organism-based.
Data set [2] deals with Leishmania panamensis. The data set is described as follows: Antileishmanial activity against Leishmania panamensis MHOM/CO/87/UA140-EpiR-GFP strain amastigotes assessed as inhibition of parasite growth incubated for 72 hrs by flow cytometric analysis. It is filed as functional, organism-based. (In flow cytometry, cells or beads pass a laser one at a time.)
For data set [3], the system named is Leishmania panamensis. Briefly: Antileishmanial activity against Leishmania panamensis MHOM/CO/87/UA140-EpiR-GFP strain promastigotes assessed as inhibition of parasite growth incubated for 72 hrs by flow cytometric analysis. It is filed as functional, organism-based.
The subject of data set [4] is Trypanosoma brucei. Briefly: Antitrypanosomal activity against bloodstream Trypanosoma brucei 427 strain assessed as parasite growth inhibition measured after 24 hrs by propidium iodide staining based flow cytometer method. It is filed as functional, organism-based. The note with it: Trypanosoma brucei, 427, 24 h.
For data set [5], the system named is Trypanosoma brucei. Briefly: Antitrypanosomal activity against bloodstream Trypanosoma brucei assessed as parasite growth inhibition measured after 72 hrs by resazurin staining based analysis. The format is functional, organism-based. For orientation: The colour change of resazurin is a common sign of viable cells or microbes.
Data set [6] can be described thus: Selectivity index, ratio of CC50 for rat L6 cells to IC50 for antitrypanosomal activity against bloodstream Trypanosoma brucei gambiense. It is filed as toxicity. The following applies: read-out: Ratio CC50/IC50.
A short description of data set [7]: Selectivity index, ratio of CC50 for rat L6 cells to IC50 for antitrypanosomal activity against bloodstream Trypanosoma brucei. The format is toxicity. The note with it: read-out: Ratio CC50/IC50.
Data set [8] deals with Trypanosoma brucei gambiense. The data set is described as follows: Antitrypanosomal activity against bloodstream Trypanosoma brucei gambiense assessed as parasite growth inhibition measured after 72 hrs by resazurin staining based analysis. It is filed as functional, organism-based.
For data set [9], the system named is Leishmania amazonensis. The data set is described as follows: Antileishmanial activity against Leishmania amazonensis amastigotes assessed as inhibition of parasite growth. It is filed as functional, organism-based.
Data set [10] concerns the target Cruzipain (Trypanosoma cruzi) (UniProt P25779). Briefly: Inhibition of Trypanosoma cruzi recombinant Cruzaine using Z-FR-AMC as substrate preincubated for 10 mins followed by substrate addition by fluorimeter analysis.
Data set [11] has as its system Trypanosoma cruzi. The data set is described as follows: Antitrypanosomal activity against Trypanosoma cruzi epimastigote assessed as parasite growth inhibition by optical density based analysis. It is filed as functional, organism-based.

Chain of Cruzipain (Trypanosoma cruzi) (P25779 123-467 limits assumed): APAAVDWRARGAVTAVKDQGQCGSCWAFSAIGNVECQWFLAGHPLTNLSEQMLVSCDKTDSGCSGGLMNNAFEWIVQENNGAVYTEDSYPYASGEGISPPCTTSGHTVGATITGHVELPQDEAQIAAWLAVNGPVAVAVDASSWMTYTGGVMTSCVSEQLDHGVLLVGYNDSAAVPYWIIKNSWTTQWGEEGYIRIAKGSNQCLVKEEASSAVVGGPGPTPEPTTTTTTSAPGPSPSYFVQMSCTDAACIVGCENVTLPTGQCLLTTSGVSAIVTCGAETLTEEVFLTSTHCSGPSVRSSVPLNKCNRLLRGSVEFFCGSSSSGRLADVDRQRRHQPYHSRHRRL

As usually defined, the IC50 is the concentration that gives 50% inhibition. `NS(=O)(=O)c1ccc(O)c([N+](=O)[O-])c1`: the IC50 in [1] is 97.7 µM.
With `O=C1C=C(c2ccc(C(F)(F)F)cc2)S(=O)(=O)c2ccc(F)cc21`, the values for the half-inhibitory concentration (IC50) in data set [2] and in data set [3] were 6.72 µM and 3.24 µM, respectively.
As to `CC(=O)OCC1O[C@@H](OC(C)=O)[C@H]([Se][Se]C2O[C@H](COC(C)=O)[C@H](OC(C)=O)[C@H](OC(C)=O)[C@H]2OC(C)=O)[C@@H](OC(C)=O)[C@H]1OC(C)=O` (stereo partly specified), the half-maximal inhibitory concentration (IC50) in [4] was 3.3 µM.
As to `CCOC(=O)C(Cc1ccccc1)N1C(=O)S/C(=C/Nc2cc(S(=O)(=O)N3CCOCC3)ccc2C)C1=S` (stereo unspecified), the results for the IC50 in data set [5] and in [8] were 0.679 µM and 0.2 µM, respectively. The selectivity ratio in data set [6] is more than 870; in [7] it was more than 255.
As to `Cc1ccc([Te]Cc2ncc(-c3ccc(S(C)(=O)=O)cc3)[se]2)cc1`, the IC50 in [9] is 6.14 µM.
As to `CC(=O)OCC1OC([Se][Se]C2O[C@H](COC(C)=O)[C@@H](OC(C)=O)[C@@H](OC(C)=O)[C@H]2OC(C)=O)[C@H](OC(C)=O)[C@@H](OC(C)=O)C1OC(C)=O` (stereo partly specified), in data set [4], the IC50 came out at 2.7 µM.
In general, inhibition refers to the percentage by which the read-out fell short of the control. With `NC(=S)N/N=C/c1ccc[nH]1`, the inhibition in data set [10] worked out at 70%. Moreover, the IC50 in data set [11] is 27 µM.
Turning to `CCOC(=O)c1ccc(N/C=C2/SC(=O)N(C(Cc3ccccc3)C(=O)OCC)C2=S)cc1` (stereo unspecified), the IC50 amounted to 0.091 µM in data set [5] and 0.027 µM in [8]. In addition, the selectivity ratio in data set [6] was found to be 1400; in [7], 409.
